Test results taken from publication PMC4930285 (Biomolecules & Therapeutics, 2016).

How the values were obtained:
[1] = biological target: T1, α7 nicotinic acetylcholine receptor (α7 nAChR) (Homo sapiens, UniProt P36544); test: two-electrode voltage clamp in Xenopus oocytes; type: cell-based
[2] = biological target: T1, α7 nicotinic acetylcholine receptor (α7 nAChR); test: two-electrode voltage clamp in Xenopus oocytes; type: cell-based; remark: listed apart in the source

T1 sequence (P36544 23-502): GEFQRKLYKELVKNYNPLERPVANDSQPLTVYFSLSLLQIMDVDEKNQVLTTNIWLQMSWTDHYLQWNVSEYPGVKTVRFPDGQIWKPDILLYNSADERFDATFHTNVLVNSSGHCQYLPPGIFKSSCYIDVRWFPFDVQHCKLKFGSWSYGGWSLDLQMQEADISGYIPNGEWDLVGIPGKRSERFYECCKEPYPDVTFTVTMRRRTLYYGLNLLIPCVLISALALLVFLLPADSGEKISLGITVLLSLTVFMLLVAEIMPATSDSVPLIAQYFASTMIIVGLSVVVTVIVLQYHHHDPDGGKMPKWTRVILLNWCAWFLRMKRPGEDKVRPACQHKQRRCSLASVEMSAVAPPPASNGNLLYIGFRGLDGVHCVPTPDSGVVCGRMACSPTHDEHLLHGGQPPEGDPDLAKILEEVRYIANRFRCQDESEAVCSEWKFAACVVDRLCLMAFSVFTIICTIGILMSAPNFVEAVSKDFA

IC50 [1]	Compound	EC50 [2]
70.4 ± 3.6 µM	C[C@@H]1O[C@@H](OC[C@H]2O[C@@H](Oc3c(-c4ccc(O)c(O)c4)oc4cc(O)cc(O)c4c3=O)[C@H](O)[C@@H](O)[C@@H]2O)[C@H](O)[C@H](O)[C@H]1O [Rutin, quercetin-3-O-rutinoside]	–
–	O=c1c(O)c(-c2ccc(O)c(O)c2)oc2cc(O)cc(O)c12 [Que, quercetin]	35.1 ± 3.8 µM
